In US8192962B2, “Processes for detecting toxic substances” (Daikin Industries, Ltd., priority 2001, dated 2012):

Test system: Genes belonging to other category
Assay: DNA chip mRNA expression in yeast, genes belonging to other category (Table 9)
Format: cell-based, Saccharomyces cerevisiae S288C
Experimental: Yeast (Saccharomyces cerevisiae S288C (α SUC2mal mel gap2 CUP1)) were incubated at 25° C. on YPD medium (yeast extract 1%, polypepton 2%, glucose 2%). One of toxic chemical substances was added to the cells at logarithmic growth phase, and the cells were further incubated for two hours. Cells were cultured without any chemical substance in the same condition, and were used as control. Concentrations of the chemical substances were defined to inhibit the growth of the yeast but not lead to death.
After completion of the incubation, the culture was centrifuged to collect the cells. To the cells, sodium acetate buffer (50 mM sodium acetate, 10 mM EDTA, 1% SDS) was added, and the mixture was shaken at 65° C. for five minutes, followed by returning to room temperature, and obtaining the supernatant, of which the procedures were repeated two times. To the supernatant, ½ amount of a solution of phenol/chloroform was added, and the mixture was centrifuged to give a supernatant, which was added with an equal amount of chloroform, and the mixture was centrifuged to give a supernatant. To the supernatant, an equal amount of isopropanol containing 0.3 M sodium acetate was added, and the mixture was allowed to stand at room temperature for 30 minutes, after which the mixture was centrifuged to give a sediment of the whole RNAs. Seventy % ethanol was added to the sediment, and the mixture was again centrifuged to give a sediment, which was then dried and dissolved in water. mRNA was isolated from the whole RNAs as followings. In view of the fact that a poly A chain is attached to the 3′ terminus of mRNA, a polynucleotide having a poly T structure which was immobilized on the surface of latex beads was used to trap the mRNA, and then the mRNA was washed and eluted with spine column (Oligotex-dT30<Super>mRNA Purification Kit, Takara). Reverse transcription of the mRNA was conducted with a reverse transcriptase (Super Script II Reverse Transcriptase; catalogue No. 18064-014, GibcoBRL) using fluorescence-labeled nucleotides to give cDNAs that were introduced with Cy3-dUTP or Cy5-dUTP during the reverse transcription.
The labeled cDNAs were dissolved in TE buffer (10mM Tris-HCl/1 mM EDTA, pH8.0), and the solution was dropped on the DNA chip containing the whole genes of yeast (DNA Chip Research Inc. Japan) so that the cDNAs were hybridized on the DNA chip at 65° C. for over 12 hours. The fluoresces intensity of the DNA chip was read with a scanner, and the ratio relative to the fluorescence intensity resulting from the absence of chemical substance was estimated as the following, which is shown in Tables 1 to 9: […]

[Cl][Hg][Cl] [(3), HgCl2]
The level of expressed mRNA in the presence of chemical substance/The level of expressed mRNA in the absence of chemical substance (yeast gene YAR010C): 1.2
The level of expressed mRNA in the presence of chemical substance/The level of expressed mRNA in the absence of chemical substance (yeast gene YBL005W-A): 0.5
The level of expressed mRNA in the presence of chemical substance/The level of expressed mRNA in the absence of chemical substance (yeast gene YBL041W): 0.9
The level of expressed mRNA in the presence of chemical substance/The level of expressed mRNA in the absence of chemical substance (yeast gene YBL043W): 1.1
The level of expressed mRNA in the presence of chemical substance/The level of expressed mRNA in the absence of chemical substance (yeast gene YBL078C): 1.3
The level of expressed mRNA in the presence of chemical substance/The level of expressed mRNA in the absence of chemical substance (yeast gene YBR214W): 5.7
The level of expressed mRNA in the presence of chemical substance/The level of expressed mRNA in the absence of chemical substance (yeast gene YCL020W): 0.5
The level of expressed mRNA in the presence of chemical substance/The level of expressed mRNA in the absence of chemical substance (yeast gene YCL027W): 1.0
The level of expressed mRNA in the presence of chemical substance/The level of expressed mRNA in the absence of chemical substance (yeast gene YCR004C): 12.0
The level of expressed mRNA in the presence of chemical substance/The level of expressed mRNA in the absence of chemical substance (yeast gene YCR071C): 0.9
The level of expressed mRNA in the presence of chemical substance/The level of expressed mRNA in the absence of chemical substance (yeast gene YCR088W): 1.2
The level of expressed mRNA in the presence of chemical substance/The level of expressed mRNA in the absence of chemical substance (yeast gene YDL008W): 1.0
The level of expressed mRNA in the presence of chemical substance/The level of expressed mRNA in the absence of chemical substance (yeast gene YDL238C): 1.1
The level of expressed mRNA in the presence of chemical substance/The level of expressed mRNA in the absence of chemical substance (yeast gene YDR055W): 2.2
The level of expressed mRNA in the presence of chemical substance/The level of expressed mRNA in the absence of chemical substance (yeast gene YDR084C): 1.5
The level of expressed mRNA in the presence of chemical substance/The level of expressed mRNA in the absence of chemical substance (yeast gene YDR085C): 1.6
The level of expressed mRNA in the presence of chemical substance/The level of expressed mRNA in the absence of chemical substance (yeast gene YDR104C): 1.2
The level of expressed mRNA in the presence of chemical substance/The level of expressed mRNA in the absence of chemical substance (yeast gene YDR115W): 0.6
The level of expressed mRNA in the presence of chemical substance/The level of expressed mRNA in the absence of chemical substance (yeast gene YDR259C): 0.4
The level of expressed mRNA in the presence of chemical substance/The level of expressed mRNA in the absence of chemical substance (yeast gene YDR315C): 1.0
The level of expressed mRNA in the presence of chemical substance/The level of expressed mRNA in the absence of chemical substance (yeast gene YDR358W): 0.7
The level of expressed mRNA in the presence of chemical substance/The level of expressed mRNA in the absence of chemical substance (yeast gene YDR388W): 1.2
The level of expressed mRNA in the presence of chemical substance/The level of expressed mRNA in the absence of chemical substance (yeast gene YDR432W): 1.0
The level of expressed mRNA in the presence of chemical substance/The level of expressed mRNA in the absence of chemical substance (yeast gene YDR481C): 1.3
The level of expressed mRNA in the presence of chemical substance/The level of expressed mRNA in the absence of chemical substance (yeast gene YDR510W): 1.5
The level of expressed mRNA in the presence of chemical substance/The level of expressed mRNA in the absence of chemical substance (yeast gene YEL042W): 1.7
The level of expressed mRNA in the presence of chemical substance/The level of expressed mRNA in the absence of chemical substance (yeast gene YEL066W): 1.5
The level of expressed mRNA in the presence of chemical substance/The level of expressed mRNA in the absence of chemical substance (yeast gene YER039C): 1.0
The level of expressed mRNA in the presence of chemical substance/The level of expressed mRNA in the absence of chemical substance (yeast gene YER107C): 1.0
The level of expressed mRNA in the presence of chemical substance/The level of expressed mRNA in the absence of chemical substance (yeast gene YER130C): 0.5
The level of expressed mRNA in the presence of chemical substance/The level of expressed mRNA in the absence of chemical substance (yeast gene YFL022C): 1.5
The level of expressed mRNA in the presence of chemical substance/The level of expressed mRNA in the absence of chemical substance (yeast gene YFL028C): 0.7
The level of expressed mRNA in the presence of chemical substance/The level of expressed mRNA in the absence of chemical substance (yeast gene YFL043C): 0.6
The level of expressed mRNA in the presence of chemical substance/The level of expressed mRNA in the absence of chemical substance (yeast gene YGL158W): 1.9
The level of expressed mRNA in the presence of chemical substance/The level of expressed mRNA in the absence of chemical substance (yeast gene YGL229C): 0.9
The level of expressed mRNA in the presence of chemical substance/The level of expressed mRNA in the absence of chemical substance (yeast gene YGR136W): 1.3
The level of expressed mRNA in the presence of chemical substance/The level of expressed mRNA in the absence of chemical substance (yeast gene YGR189C): 1.5
The level of expressed mRNA in the presence of chemical substance/The level of expressed mRNA in the absence of chemical substance (yeast gene YGR213C): 1.0
The level of expressed mRNA in the presence of chemical substance/The level of expressed mRNA in the absence of chemical substance (yeast gene YGR257C): 0.9
The level of expressed mRNA in the presence of chemical substance/The level of expressed mRNA in the absence of chemical substance (yeast gene YHR004C): 0.8
The level of expressed mRNA in the presence of chemical substance/The level of expressed mRNA in the absence of chemical substance (yeast gene YHR071W): 0.6
The level of expressed mRNA in the presence of chemical substance/The level of expressed mRNA in the absence of chemical substance (yeast gene YHR139C): 6.8
The level of expressed mRNA in the presence of chemical substance/The level of expressed mRNA in the absence of chemical substance (yeast gene YHR142W): 2.1
The level of expressed mRNA in the presence of chemical substance/The level of expressed mRNA in the absence of chemical substance (yeast gene YIL123W): 1.2
The level of expressed mRNA in the presence of chemical substance/The level of expressed mRNA in the absence of chemical substance (yeast gene YIL140W): 1.5
The level of expressed mRNA in the presence of chemical substance/The level of expressed mRNA in the absence of chemical substance (yeast gene YJL073W): 2.5
The level of expressed mRNA in the presence of chemical substance/The level of expressed mRNA in the absence of chemical substance (yeast gene YJL089W): 1.0
The level of expressed mRNA in the presence of chemical substance/The level of expressed mRNA in the absence of chemical substance (yeast gene YJL116C): 1.3
The level of expressed mRNA in the presence of chemical substance/The level of expressed mRNA in the absence of chemical substance (yeast gene YJR004C): 3.4
The level of expressed mRNA in the presence of chemical substance/The level of expressed mRNA in the absence of chemical substance (yeast gene YJR086W): 0.8
